System: 991263-137-R1-J2-PDC complex spheroid viability
Experiment: Anticancer human tumor 991263-137-R1-J2-PDC patient-derived colon adenocarcinoma cell line growth inhibition [POLQ]
Conditions: for IC50: curve of first compound; for viability, T/C: stronger effect = lower value
Procedure: Multicellular complex tumor spheroid response to Polymerase (POL) inhibitors (novobiocin, ART-558, RP6685) in combination with a variety of drugs and investigational agents in selected tumor cell lines
The POL inhibitors (novobiocin, ART-558, and RP6685) were evaluated both individually and in combination with standard of care and investigational anticancer small molecules within a complex spheroid model of solid tumors. . Complex spheroids include a stromal component modeled by human endothelial cells (HUVEC) and fibroblasts modeled by human mesenchymal stem cells (MSCs). The concentration ranges selected for each drug and investigational agent were based upon clinically achievable concentrations if the clinical Cmax of the agent was known.
Compounds. The drugs and investigational agents: novobiocin (NSC847541), ART-558 (NSC835418), RP-6685 (NSC848927), peposertib (NSC802822), ceralasertib (NSC780249), elimusertib (NSC800525), camonsertib (NSC841442), AZD-1390 (NSC803789), olaparib (NSC753686), talazoparib (NSC767125), rucaparib (NSC756644), sotorasib (NSC818433), MRTX-1133 (NSC836407), SN-38 (NSC673596), topotecan (NSC609699), epotoside (NSC141540), doxorubicin (NSC123127), gemcitabine (NSC613327), 5-fluorouracil (NSC19893), paclitaxel (NSC125973), vemurafenib (NSC761431), MSA-2 (NSC828583), SN-011 (NSC837082), adavosertib (NSC754352), prexasertib (NSC758257), carboplatin (NSC241240) and oxaliplatin (NSC266046), were obtained from the National Cancer Institute (NCI) Developmental Therapeutics Program Chemical Repository (21). The FDA-approved anticancer drug set is available from the Developmental Therapeutics Program at https://dtp.cancer.gov/organization/dscb/obtaining/. […] The stock solutions were prepared in dimethyl sulfoxide (DMSO, Sigma-Aldrich, St. Louis, MO, cat. D2650), except for the platinum compounds which were prepared in saline (Quality Biological, Gaithersburg, MD, cat. 114-055-101), at 800-fold the tested concentration and stored at -70 degrees C prior to their use. All drugs and investigational agents were tested over a range starting from a high concentration at or near the clinical Cmax and decreasing in half-log increments. If the clinical Cmax for an agent had not been determined, the highest concentration tested was 10 microM, except for SN-38, which was tested at a high concentration of 1 microM.
Cell Culture. All cells were maintained in an incubator at 37 degrees C and 5% CO2 with 95% humidity. The PDC lines were cultured according to standard operating procedures established by the NCI PDMR (https://pdmr.cancer.gov). Table 3 of the manuscript, lists the cell lines along with the number of the three cell types plated to form the mct-spheroids and media for tumor cell growth. After thawing, all PDC lines, except 997537-175-T-J1-PDC and 415267-285-R-J2-PDC, were cultured in Matrigel-coated flasks prepared with a working solution of 1X Ham's F-12 nutrient mix, without supplementation (Thermo Fisher Scientific, cat. 11765054), 100 U/mL penicillin-streptomycin (Thermo Fisher Scientific, cat. 15140122), and 2.5% Matrigel (Corning Inc., Corning, NY, cat. 354248) for the first three passages. The two PDC lines 997537-175-T-J1-PDC and 415267-285-R-J2-PDC were cultured on uncoated flasks. The 857933-349-R-J2-PDC line was cultured in 6C/Colon 1B media containing advanced DMEM/F-12 (Thermo Fisher Scientific, cat. 12634028), 10 mM HEPES (Thermo Fisher Scientific, cat. 15630080), 1X GlutaMAX supplement (Thermo Fisher Scientific, cat. 35050061), 0.1 mg/mL primocin (InvivoGen, San Diego, CA, cat. ant-pm-2), 10% defined fetal bovine serum, heat inactivated (HyClone Laboratories Inc., Logan, UT, cat. SH30070.03HI), 50% L-WRN conditioned media (ATCC, cat. CRL-3276), 1.25 mM N-Acetyl-L-cysteine (Sigma-Aldrich, cat. A9165), 10 mM nicotinamide (Sigma-Aldrich, cat. N0636), 1X B-27 supplement (Thermo Fisher Scientific, cat. 17504044), 1X N-2 supplement (Thermo Fisher Scientific, cat. […]

[1] = second compound 0.0316 µM, first compound 0.0316 µM
[2] = second compound 0.0316 µM, first compound 0.1 µM
[3] = second compound 0.0316 µM, first compound 0.316 µM
[4] = second compound 0.0316 µM, first compound 1 µM
[5] = second compound 0.0316 µM, first compound 3.16 µM
[6] = second compound 0.0316 µM, first compound 10 µM
[7] = second compound 0.1 µM, first compound 0.0316 µM
[8] = second compound 0.1 µM, first compound 0.1 µM
[9] = second compound 0.1 µM, first compound 0.316 µM
[10] = second compound 0.1 µM, first compound 1 µM
[11] = second compound 0.1 µM, first compound 3.16 µM
[12] = second compound 0.1 µM, first compound 10 µM
[13] = second compound 0.316 µM, first compound 0.0316 µM
[14] = second compound 0.316 µM, first compound 0.1 µM
[15] = second compound 0.316 µM, first compound 0.316 µM
[16] = second compound 0.316 µM, first compound 1 µM
[17] = second compound 0.316 µM, first compound 3.16 µM
[18] = second compound 0.316 µM, first compound 10 µM
[19] = second compound 1 µM, first compound 0.0316 µM
[20] = second compound 1 µM, first compound 0.1 µM
[21] = second compound 1 µM, first compound 0.316 µM
[22] = second compound 1 µM, first compound 1 µM
[23] = second compound 1 µM, first compound 3.16 µM
[24] = second compound 1 µM, first compound 10 µM
[25] = second compound 3.16 µM, first compound 0.0316 µM
[26] = second compound 3.16 µM, first compound 0.1 µM
[27] = second compound 3.16 µM, first compound 0.316 µM
[28] = second compound 3.16 µM, first compound 1 µM
[29] = second compound 3.16 µM, first compound 3.16 µM
[30] = second compound 3.16 µM, first compound 10 µM
[31] = second compound 10 µM, first compound 0.0316 µM
[32] = second compound 10 µM, first compound 0.1 µM
[33] = second compound 10 µM, first compound 0.316 µM
[34] = second compound 10 µM, first compound 1 µM
[35] = second compound 10 µM, first compound 3.16 µM
[36] = second compound 10 µM, first compound 10 µM
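Also: spheroids exposed to compounds for 7 days before readout.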
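For viability, T/C in this document: 100% = DMSO vehicle control viability.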

In the case of `CCc1cc2c(N3CCc4c(cc(Cn5ccnc5)cc4-c4cn(C)nc4C(F)(F)F)C3=O)cc(C)nc2c(OC)n1` + Nc1ccc(C#CCN(C(=O)Cc2ncc(C(F)(F)F)cc2C(F)(F)F)c2ccc(F)cc2)nn1, the IC50 (second compound 0.0316 µM) is reported as > 10 µM, the IC50 (second compound 0.1 µM) is reported as > 10 µM and the IC50 (second compound 0.316 µM) is reported as > 10 µM. For the same compound, the IC50 (second compound 1 µM) was > 10 µM, the IC50 (second compound 3.16 µM) was > 10 µM and the IC50 (second compound 10 µM) was > 10 µM. It also gave a viability, T/C [1] of 99.3%, a viability, T/C [2] of 104% and a viability, T/C [3] of 107%. For the same compound, the viability, T/C [4] was 98.7%, the viability, T/C [5] was 89.8% and the viability, T/C [6] was 92.2%. The viability, T/C [7] was 105%, the viability, T/C [8] was 99.9% and the viability, T/C [9] was 102%. For the same compound, the viability, T/C [10] was 98.2%, the viability, T/C [11] was 109% and the viability, T/C [12] was 96.9%. The viability, T/C [13] was 102%, the viability, T/C [14] was 112% and the viability, T/C [15] was 103%. It also gave a viability, T/C [16] of 103%, a viability, T/C [17] of 87.7% and a viability, T/C [18] of 104%. For the same compound, the viability, T/C [19] was 107%, the viability, T/C [20] was 107% and the viability, T/C [21] was 93.2%. For the same compound, the viability, T/C [22] was 90.5%, the viability, T/C [23] was 104% and the viability, T/C [24] was 93%. It also gave a viability, T/C [25] of 94.6%, a viability, T/C [26] of 99.9% and a viability, T/C [27] of 98.6%. It also gave a viability, T/C [28] of 96.6%, a viability, T/C [29] of 95.6% and a viability, T/C [30] of 83.9%. For the same compound, the viability, T/C [31] was 94.6%, the viability, T/C [32] was 103% and the viability, T/C [33] was 98.2%. For the same compound, the viability, T/C [34] was 92.7%, the viability, T/C [35] was 94.9% and the viability, T/C [36] was 93.2%.

In the case of `O=C(Nc1ccc(O)c(NS(=O)(=O)c2ccc(F)cc2)c1)c1ccc(-c2ccccc2)cc1` + Nc1ccc(C#CCN(C(=O)Cc2ncc(C(F)(F)F)cc2C(F)(F)F)c2ccc(F)cc2)nn1, the IC50 (second compound 0.0316 µM) is reported as > 10 µM, the IC50 (second compound 0.1 µM) is reported as > 10 µM and the IC50 (second compound 0.316 µM) is reported as > 10 µM. For the same compound, the IC50 (second compound 1 µM) was > 10 µM, the IC50 (second compound 3.16 µM) was > 10 µM and the IC50 (second compound 10 µM) was > 10 µM. For the same compound, the viability, T/C [1] was 97.7%, the viability, T/C [2] was 108% and the viability, T/C [3] was 107%. The viability, T/C [4] was 104%, the viability, T/C [5] was 119% and the viability, T/C [6] was 100%. It also gave a viability, T/C [7] of 111%, a viability, T/C [8] of 97.5% and a viability, T/C [9] of 108%. For the same compound, the viability, T/C [10] was 107%, the viability, T/C [11] was 107% and the viability, T/C [12] was 107%. For the same compound, the viability, T/C [13] was 101%, the viability, T/C [14] was 105% and the viability, T/C [15] was 107%. The viability, T/C [16] was 105%, the viability, T/C [17] was 114% and the viability, T/C [18] was 101%. For the same compound, the viability, T/C [19] was 96.2%, the viability, T/C [20] was 100% and the viability, T/C [21] was 104%. It also gave a viability, T/C [22] of 105%, a viability, T/C [23] of 97.2% and a viability, T/C [24] of 102%. It also gave a viability, T/C [25] of 107%, a viability, T/C [26] of 108% and a viability, T/C [27] of 95.7%. For the same compound, the viability, T/C [28] was 109%, the viability, T/C [29] was 97.4% and the viability, T/C [30] was 95.3%. For the same compound, the viability, T/C [31] was 102%, the viability, T/C [32] was 110% and the viability, T/C [33] was 94.5%. For the same compound, the viability, T/C [34] was 104%, the viability, T/C [35] was 92.5% and the viability, T/C [36] was 101%.

In the case of `O=c1[nH]cc(F)c(=O)[nH]1` + Nc1ccc(C#CCN(C(=O)Cc2ncc(C(F)(F)F)cc2C(F)(F)F)c2ccc(F)cc2)nn1, the IC50 (second compound 0.0316 µM) is reported as > 10 µM, the IC50 (second compound 0.1 µM) is reported as > 10 µM and the IC50 (second compound 0.316 µM) is reported as > 10 µM. For the same compound, the IC50 (second compound 1 µM) was > 10 µM, the IC50 (second compound 3.16 µM) was > 10 µM and the IC50 (second compound 10 µM) was > 10 µM. The viability, T/C [1] was 118%, the viability, T/C [2] was 112% and the viability, T/C [3] was 96.5%. It also gave a viability, T/C [4] of 97.1%, a viability, T/C [5] of 89.4% and a viability, T/C [6] of 89.3%. It also gave a viability, T/C [7] of 113%, a viability, T/C [8] of 115% and a viability, T/C [9] of 96%. It also gave a viability, T/C [10] of 101%, a viability, T/C [11] of 87% and a viability, T/C [12] of 80.9%. For the same compound, the viability, T/C [13] was 94.5%, the viability, T/C [14] was 104% and the viability, T/C [15] was 101%. It also gave a viability, T/C [16] of 93%, a viability, T/C [17] of 85.6% and a viability, T/C [18] of 86.1%. For the same compound, the viability, T/C [19] was 117%, the viability, T/C [20] was 114% and the viability, T/C [21] was 111%. The viability, T/C [22] was 90.2%, the viability, T/C [23] was 92.4% and the viability, T/C [24] was 86%. For the same compound, the viability, T/C [25] was 116%, the viability, T/C [26] was 106% and the viability, T/C [27] was 86.9%. The viability, T/C [28] was 89%, the viability, T/C [29] was 92.2% and the viability, T/C [30] was 78.4%. For the same compound, the viability, T/C [31] was 126%, the viability, T/C [32] was 101% and the viability, T/C [33] was 92.6%. For the same compound, the viability, T/C [34] was 85%, the viability, T/C [35] was 83.4% and the viability, T/C [36] was 84.9%.

— PubChem BioAssay AID1963828 (Molecular Pharmacology Branch, DTP, NCI, 2024)
